Laboratory results taken from patent US8993304B2, “Chloramphenicol resistance selection in Bacillus licheniformis” (Novozymes A/S, priority 2006, dated 2015).

Key:
Format in all cases: cell-based, Bacillus licheniformis
SJ8072 = assay: Growth on reisolation onto LPBSG plates with chloramphenicol; details: SJ8072 deletion strain; LPBSG plates with 10 mikrogram/ml chloramphenicol
Excerpt: (§4) 2 erythromycin sensitive and chloramphenicol sensitive strains were kept as SJ8071 (from donor SJ8039) and SJ8072 (from donor SJ8041).

control strain = assay: as above; details: LPBSG plates with 10 mikrogram/ml chloramphenicol
Excerpt: as §4

ATCC14580 = assay: Test of chloramphenicol resistance, growth in liquid TY+glucose culture; details: 30° C.
Procedure: (§1) Strains PP1897-3, SJ8071 (=PP1897-3 delta cat), ATCC14580, and SJ8344 (=ATCC14580 delta cat) were propagated in 10 ml TY (WO 94/14968, p16) supplemented with 0.5% glucose at 30° C. overnight, with shaking. 50 microliter aliquots were used to inoculate further 10 ml TY+glucose cultures, supplemented with chloramphenicol (cam) to concentrations: 1 microgram/ml, 2 microgram/ml, 3 microgram/ml, 6 microgram/ml, 9 microgram/ml, or 12 microtram/ml, and incubation with shaking continued at 30° C. Growth was scored by visual inspection of turbidity after approximately 7 hours (table 1), and again after overnight incubation (table 2).

[1] = test system: SJ8344 (=ATCC14580 delta cat); assay: as above; details: 30° C.
Procedure: as §1

[2] = test system: SJ8071 (=PP1897-3 delta cat); assay: as above; details: 30° C.
Procedure: as §1

PP1897-3 = assay: as above; details: 30° C.
Procedure: as §1

SJ8071 = assay: Growth on reisolation onto LPBSG plates with chloramphenicol; details: SJ8071 deletion strain; LPBSG plates with 10 mikrogram/ml chloramphenicol
Excerpt: as §4

[3] = test system: cat-deleted recipient strains; assay: Transconjugant selection on chloramphenicol plates; details: cat-deleted recipients (SJ8071, SJ8344); donor SJ8000; chloramphenicol 6 microgram/ml; 30° C. overnight
Procedure: (§2) B. licheniformis strains PP1897-3, the cat-deleted derivative SJ8071, strain ATCC14580, and the cat-deleted derivative SJ8344 were used as recipients in conjugations with donor strain SJ8000, essentially as described before.
(§3) For each donor/recipient combination, donor and recipient colonies were scraped off overnight plates and mixed in a small volume of liquid TY medium, and equal volumes from this mixture was plated on each of two LBPGS plates with D-alanine. Following 6 hours incubation at 30° C., one plate was replicaplated onto LBPGS with erythromycin (2 microgram/ml), and the other plate replica plated onto LPPGS with chloramphenicol (6 microgram/ml). These plates were incubated at 30° C. overnight, then left at room temperature (20-25° C.) for further 3 days.

[4] = test system: recipient strains containing intact, chromosomal chloramphenicol resistance genes; assay: Transconjugant selection on chloramphenicol plates; details: recipients with intact chromosomal cat (PP1897-3, ATCC14580); donor SJ8000; chloramphenicol 6 microgram/ml; 30° C. overnight
Procedure: as §2, §3

[5] = 1 μg/ml cam, after 7 hours incubation
[6] = 1 μg/ml cam, after overnight incubation
[7] = 2 μg/ml cam, after 7 hours incubation
[8] = 2 μg/ml cam, after overnight incubation
[9] = 3 μg/ml cam, after 7 hours incubation
[10] = 3 μg/ml cam, after overnight incubation
[11] = 6 μg/ml cam, after 7 hours incubation
[12] = 6 μg/ml cam, after overnight incubation
[13] = 9 μg/ml cam, after 7 hours incubation
[14] = 9 μg/ml cam, after overnight incubation
[15] = 12 μg/ml cam, after 7 hours incubation
[16] = 12 μg/ml cam, after overnight incubation

O=C(N[C@H](CO)[C@H](O)c1ccc([N+](=O)[O-])cc1)C(Cl)Cl [cam, chloramphenicol]
−: Growth scored by visual inspection of turbidity (ATCC14580; [11]) | Growth scored by visual inspection of turbidity (ATCC14580; [13]) | Growth scored by visual inspection of turbidity (ATCC14580; [15]) | Growth scored by visual inspection of turbidity [1, 7] | Growth scored by visual inspection of turbidity [1, 9] | Growth scored by visual inspection of turbidity [1, 11] | Growth scored by visual inspection of turbidity [1, 13] | Growth scored by visual inspection of turbidity [1, 15] | Growth scored by visual inspection of turbidity [2, 7] | Growth scored by visual inspection of turbidity [2, 9] | Growth scored by visual inspection of turbidity [2, 11] | Growth scored by visual inspection of turbidity [2, 13] | Growth scored by visual inspection of turbidity [2, 15] | Growth scored by visual inspection of turbidity (PP1897-3; [11]) | Growth scored by visual inspection of turbidity (PP1897-3; [13]) | Growth scored by visual inspection of turbidity (PP1897-3; [15])
some growth: Growth when reisolated onto plates (control strain)
Distinct transconjugant colonies: Transconjugant colonies using chloramphenicol selection [3]
++: Growth scored by visual inspection of turbidity (ATCC14580; [5]) | Growth scored by visual inspection of turbidity (ATCC14580; [6]) | Growth scored by visual inspection of turbidity (ATCC14580; [8]) | Growth scored by visual inspection of turbidity (ATCC14580; [10]) | Growth scored by visual inspection of turbidity (ATCC14580; [12]) | Growth scored by visual inspection of turbidity (ATCC14580; [14]) | Growth scored by visual inspection of turbidity [1, 6] | Growth scored by visual inspection of turbidity [1, 8] | Growth scored by visual inspection of turbidity [1, 10] | Growth scored by visual inspection of turbidity [2, 6] | Growth scored by visual inspection of turbidity [2, 8] | Growth scored by visual inspection of turbidity [2, 10] | Growth scored by visual inspection of turbidity (PP1897-3; [5]) | Growth scored by visual inspection of turbidity (PP1897-3; [6]) | Growth scored by visual inspection of turbidity (PP1897-3; [7]) | Growth scored by visual inspection of turbidity (PP1897-3; [8]) | Growth scored by visual inspection of turbidity (PP1897-3; [10]) | Growth scored by visual inspection of turbidity (PP1897-3; [12]) | Growth scored by visual inspection of turbidity (PP1897-3; [14])
No distinct transconjugant colonies: Transconjugant colonies using chloramphenicol selection [4]
absolutely no growth: Growth when reisolated onto plates (SJ8072) | Growth when reisolated onto plates (SJ8071)
+: Growth scored by visual inspection of turbidity (ATCC14580; [7]) | Growth scored by visual inspection of turbidity (ATCC14580; [9]) | Growth scored by visual inspection of turbidity (ATCC14580; [16]) | Growth scored by visual inspection of turbidity [1, 5] | Growth scored by visual inspection of turbidity [1, 12] | Growth scored by visual inspection of turbidity [1, 14] | Growth scored by visual inspection of turbidity [1, 16] | Growth scored by visual inspection of turbidity [2, 5] | Growth scored by visual inspection of turbidity [2, 12] | Growth scored by visual inspection of turbidity [2, 14] | Growth scored by visual inspection of turbidity [2, 16] | Growth scored by visual inspection of turbidity (PP1897-3; [9]) | Growth scored by visual inspection of turbidity (PP1897-3; [16])
